Molecules are shown by their SMILES.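 Cultured in 96-well plates, cells were exposed to test compound for 48 hours across five concentrations. GI50: concentration for 50% inhibition of growth. TGI: concentration producing complete growth inhibition.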

Common to all, as to assay: NCI tumour cell line growth inhibition, 48 h
Experiment [1] relates to RXF 393 renal.
Experiment [2] relates to KM12 colon.
For experiment [3], the system named is COLO 205 colon.
In experiment [4] the test system is OVCAR-5 ovarian.
In experiment [5] the test system is MOLT-4 leukemia.
Experiment [6] has as its system T-47D breast.
In experiment [7] the test system is OVCAR-3 ovarian.
For experiment [8], the system named is M14 melanoma.
For experiment [9], the system named is EKVX NSCLC.
The subject of experiment [10] is HT29 colon.

For `CC(=O)OCc1ccc2c(c1)C(O)NC(=O)O2` (stereo not given), the TGI in experiment [1], in [2], in [3], in experiment [4], in experiment [5] and in experiment [6] was more than 100 µM throughout. Besides, the TGI was 59.4 µM in experiment [7], more than 100 µM in [8], more than 100 µM in experiment [9] and more than 100 µM in experiment [10].
As for `O=C1C(Br)=C(Br)C(=O)c2ccc(=O)ccc21`, the TGI was 36.3 µM in experiment [1]; more than 100 µM in experiment [2]; 26.4 µM in experiment [3]; more than 86.7 µM in experiment [4]; 23.5 µM in experiment [5]; 48.5 µM in experiment [6]. In addition, the TGI was 41.8 µM in experiment [7], 32.7 µM in experiment [8], more than 90.9 µM in experiment [9] and more than 75 µM in [10].
Consider `Cc1ccc(-c2nc(N3CCNCC3)c3oc(-c4ccc(C)cc4)nc3n2)cc1`, for which the GI50 in experiment [1] is 3.89 µM; in experiment [2] it was 1.66 µM; in experiment [3], 1.98 µM; in experiment [4], 5.21 µM; in [5] it was 2.2 µM; in experiment [6], 25.7 µM. Besides, the GI50 is 1.95 µM in experiment [7], 1.83 µM in experiment [8], more than 36.3 µM in [9] and 1.88 µM in [10]. The TGI in [1] was 8.81 µM; in [2], 3.2 µM; in [3] it was 4.11 µM; in [4] it was 17.9 µM; in [5] it was 4.69 µM; in [6], more than 61.1 µM. Further, the TGI in [7] was 3.87 µM; in experiment [8] it was 3.69 µM; in [9], more than 51.7 µM; in experiment [10], 3.42 µM.

For the origin of these results see PubChem BioAssay (NCI).
